Legend:
[1] = molecular target: HIS-TGFβR1 T204D (Homo sapiens (Human), UniProt P36897, T204D); test: HTRF probe displacement assay, HIS-TGFβR1 T204D; assay type: binding; settings: 1 nM HIS-TGFβR1 T204D, 1 hour at room temperature, read-out: TGFBR1T204D IC50
Description: (§1) Compounds were dissolved at 10 mM in dimethylsulfoxide (DMSO) and evaluated at eleven concentrations. IC50 values were derived by non-linear regression analysis.

[2] = molecular target: HIS-TGFβR2 WT (Homo sapiens (Human), UniProt P37173); test: HTRF probe displacement assay, HIS-TGFβR2 WT; assay type: binding; settings: 1 nM HIS-TGFβR2 WT, 1 hour at room temperature, read-out: TGFBR2WT IC50
Description: as §1

Chain of HIS-TGFβR2 WT (P37173 23-567): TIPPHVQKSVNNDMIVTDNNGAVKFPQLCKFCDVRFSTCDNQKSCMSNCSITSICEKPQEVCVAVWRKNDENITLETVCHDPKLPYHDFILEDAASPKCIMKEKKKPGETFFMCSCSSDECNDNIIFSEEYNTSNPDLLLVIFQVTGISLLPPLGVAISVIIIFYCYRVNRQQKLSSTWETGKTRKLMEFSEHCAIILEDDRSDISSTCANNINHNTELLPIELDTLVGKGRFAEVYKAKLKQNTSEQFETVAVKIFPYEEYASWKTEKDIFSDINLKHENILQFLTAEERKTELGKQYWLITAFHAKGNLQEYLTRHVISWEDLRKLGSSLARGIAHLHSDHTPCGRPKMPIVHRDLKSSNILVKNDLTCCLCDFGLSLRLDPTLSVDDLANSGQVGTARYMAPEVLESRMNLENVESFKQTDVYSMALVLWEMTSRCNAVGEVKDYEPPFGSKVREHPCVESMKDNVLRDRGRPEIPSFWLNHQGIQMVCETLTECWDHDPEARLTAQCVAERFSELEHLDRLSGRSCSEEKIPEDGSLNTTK
Chain of HIS-TGFβR1 T204D (P36897 34-503 T204D): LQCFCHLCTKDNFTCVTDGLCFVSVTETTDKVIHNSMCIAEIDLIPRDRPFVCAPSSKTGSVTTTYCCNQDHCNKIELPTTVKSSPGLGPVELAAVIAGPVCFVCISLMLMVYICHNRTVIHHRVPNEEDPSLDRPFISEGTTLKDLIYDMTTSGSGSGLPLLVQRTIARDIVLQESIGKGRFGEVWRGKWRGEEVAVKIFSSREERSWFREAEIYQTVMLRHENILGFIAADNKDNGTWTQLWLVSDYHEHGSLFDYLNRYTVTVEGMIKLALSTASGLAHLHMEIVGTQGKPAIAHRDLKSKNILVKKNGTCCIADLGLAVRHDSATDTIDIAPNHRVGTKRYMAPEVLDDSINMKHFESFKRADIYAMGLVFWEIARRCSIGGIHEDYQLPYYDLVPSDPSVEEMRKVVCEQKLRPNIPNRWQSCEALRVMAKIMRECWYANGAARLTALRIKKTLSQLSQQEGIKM

| SMILES | IC50 [1] [nM] | IC50 [2] [µM] |
| --- | --- | --- |
| NC(=O)c1cnc2ccc(-c3cccnc3-c3cccc(C4CC4)n3)cn12 [Compound 35, 6-(6′-cyclopropyl-[2,2′-bipyridin]-3-yl)imidazo[1,2-a]pyridine-3-carboxamide] | 1 | > 15 |
| COC(=O)c1ccc(-c2ncccc2-c2ccc3ncc(C(N)=O)n3c2)nc1 [Compound 26, methyl 3′-(3-carbamoylimidazo[1,2-a]pyridin-6-yl)-[2,2′-bipyridine]-5-carboxylate] | 7650 | > 15 |
| CC(=O)Nc1cn2cc(-c3cccnc3-c3ccc(F)c(C)n3)ccc2n1 [Compound 77, N-(6-(5′-fluoro-6′-methyl-[2,2′-bipyridin]-3-yl)imidazo[1,2-a]pyridin-2-yl)acetamide] | 4 | > 15 |
| N#Cc1cnc2ccc(-c3cccnc3-c3cccc(C4CC4)n3)cn12 [Compound 34, 6-(6′-cyclopropyl-[2,2′-bipyridin]-3-yl)imidazo[1,2-a]pyridine-3-carbonitrile] | 19 | > 15 |
| Cc1nc(-c2ncccc2-c2ccc3ncnc(N)c3c2)ccc1F [Compound 110] | 2 | > 15 |
| Cc1cccc(-c2nccc(CO)c2-c2ccc3ncc(C#N)n3c2)n1 [Compound 92, 6-(4-(hydroxymethyl)-6′-methyl-[2,2′-bipyridin]-3-yl)imidazo[1,2-a]pyridine-3-carbonitrile] | 487 | > 15 |
| Nc1ncnc2ccc(-c3cccnc3-c3cccc(C(F)F)n3)nc12 [Compound 105, 6-(6′-(difluoromethyl)-[2,2′-bipyridin]-3-yl)pyrido[3,2-d]pyrimidin-4-amine] | 3 | > 15 |
| Cc1cccc(-c2nccc(C(F)F)c2-c2ccc3ncc(C#N)n3c2)n1 [Compound 93, 6-(4-(difluoromethyl)-6′-methyl-[2,2′-bipyridin]-3-yl)imidazo[1,2-a]pyridine-3-carbonitrile] | 15000 | > 15 |
| Cc1cc(C)nc(-c2ncccc2-c2ccc3ncc(C(N)=O)n3c2)c1 [Compound 42, 6-(4′,6′-dimethyl-[2,2′-bipyridin]-3-yl)imidazo[1,2-a]pyridine-3-carboxamide] | 21 | > 15 |
| Cc1cccc(-c2ncccc2-c2ccn3nccc3n2)n1 [Compound 138, 5-(6′-methyl-[2,2′-bipyridin]-3-yl)pyrazolo[1,5-a]pyrimidine] | 5 | > 15 |
| Cc1cccc(-c2nccc(C(F)F)c2-c2ccc3ncc(C(N)=O)n3c2)n1 [Compound 94, 6-(4-(difluoromethyl)-6′-methyl-[2,2′-bipyridin]-3-yl)imidazo[1,2-a]pyridine-3-carboxamide] | 15000 | > 15 |
| Cc1ccc(-c2ncccc2-c2ccc3ncc(C#N)n3n2)nc1 [Compound 55, 6-(5′-methyl-[2,2′-bipyridin]-3-yl)imidazo[1,2-b]pyridazine-3-carbonitrile] | 5230 | > 15 |
| CC(C)c1cccc(-c2ncccc2-c2ccc3ncc(C#N)n3c2)n1 [Compound 31, 6-(6′-isopropyl-[2,2′-bipyridin]-3-yl)imidazo[1,2-a]pyridine-3-carbonitrile] | 307 | > 15 |

Continued by falling IC50 [1], values first:

| IC50 [1] [nM] | IC50 [2] [µM] | SMILES |
| --- | --- | --- |
| 918 | > 15 | N#Cc1cnc2ccc(-c3cccnc3-c3cc(F)ccn3)nn12 [Compound 59, 6-(4′-fluoro-[2,2′-bipyridin]-3-yl)imidazo[1,2-b]pyridazine-3-carbonitrile] |
| 821 | > 15 | CC(=O)c1cccc(-c2ncccc2-c2ccc3ncc(C#N)n3c2)n1 [Compound 40, 6-(6′-acetyl-[2,2′-bipyridin]-3-yl)imidazo[1,2-a]pyridine-3-carbonitrile] |
| 339 | > 15 | CNC(=O)c1cnn2ccc(-c3cccnc3-c3cccc(C(F)(F)F)n3)nc12 [Compound 125, N-methyl-5-(6′-(trifluoromethyl)-[2,2′-bipyridin]-3-yl)pyrazolo[1,5-a]pyrimidine-3-carboxamide] |
| 254 | > 15 | NC(=O)c1cnc2ccc(-c3cccnc3-c3ccc(F)cn3)nn12 [Compound 54, 6-(5′-fluoro-[2,2′-bipyridin]-3-yl)imidazo[1,2-b]pyridazine-3-carboxamide] |
| 187 | > 15 | Cc1cccc(-c2nc(C)ccc2-c2ccc3ncc(C#N)n3c2)n1 [Compound 86, 6-(6,6′-dimethyl-[2,2′-bipyridin]-3-yl)imidazo[1,2-a]pyridine-3-carbonitrile] |
| 120 | > 15 | N#Cc1cnc2ccc(-c3cccnc3-c3cccc(F)n3)cn12 [Compound 36, 6-(6′-fluoro-[2,2′-bipyridin]-3-yl)imidazo[1,2-a]pyridine-3-carbonitrile] |
| 103 | > 15 | N#Cc1cnc2ccc(-c3cccnc3-c3ccc(F)cn3)cn12 [Compound 20, 6-(5′-fluoro-[2,2′-bipyridin]-3-yl)imidazo[1,2-a]pyridine-3-carbonitrile] |
| 94 | > 15 | O=C(NC1CC1)c1cnn2ccc(-c3cccnc3-c3cccc(C(F)(F)F)n3)nc12 [Compound 126, N-cyclopropyl-5-(6′-(trifluoromethyl)-[2,2′-bipyridin]-3-yl)pyrazolo[1,5-a]pyrimidine-3-carboxamide] |
| 84 | > 15 | Cc1cccc(-c2nc(C(F)(F)F)ccc2-c2ccc3ncc(C(N)=O)n3c2)n1 [Compound 90, 6-(6′-methyl-6-(trifluoromethyl)-[2,2′-bipyridin]-3-yl)imidazo[1,2-a]pyridine-3-carboxamide] |
| 36 | > 15 | Cc1nc(-c2ncccc2-c2ccn3ncc(C(=O)NC4CC4)c3n2)ccc1F [Compound 132, N-cyclopropyl-5-(5′-fluoro-6′-methyl-[2,2′-bipyridin]-3-yl)pyrazolo[1,5-a]pyrimidine-3-carboxamide] |
| 22 | > 15 | N#Cc1cnc2ccc(-c3cc(F)cnc3-c3cccc(C(F)F)n3)cn12 [Compound 83, 6-(6′-(difluoromethyl)-5-fluoro-[2,2′-bipyridin]-3-yl)imidazo[1,2-a]pyridine-3-carbonitrile] |
| 16 | > 15 | Cc1cccc(-c2ncc(F)cc2-c2ccc3ncc(C#N)n3c2)n1 [Compound 81, 6-(5-fluoro-6′-methyl-[2,2′-bipyridin]-3-yl)imidazo[1,2-a]pyridine-3-carbonitrile] |
| 14 | > 15 | CCOC(=O)c1cnn2ccc(-c3cccnc3-c3ccc(F)c(C)n3)nc12 [Compound 130, ethyl 5-(5′-fluoro-6′-methyl-[2,2′-bipyridin]-3-yl)pyrazolo[1,5-a]pyrimidine-3-carboxylate] |
| 9 | > 15 | Cc1cccc(-c2ncccc2-c2ccc3nccnc3c2)n1 [Compound 113, 6-(6′-methyl-[2,2′-bipyridin]-3-yl)quinoxaline] |
| 5 | > 15 | Cc1cccc(-c2nccc(N)c2-c2ccc3ncc(C(N)=O)n3c2)n1 [Compound 101, 6-(4-amino-6′-methyl-[2,2′-bipyridin]-3-yl)imidazo[1,2-a]pyridine-3-carboxamide] |
| 1 | > 15 | NC(=O)c1cnc2ccc(-c3cccnc3-c3cccc(C(F)(F)F)n3)cn12 [Compound 18, 6-(6′-(trifluoromethyl)-[2,2′-bipyridin]-3-yl)imidazo[1,2-a]pyridine-3-carboxamide] |
